Assay results as given in patent US9453009B2, “Synthesis of deuterated morpholine derivatives” (Concert Pharmaceuticals, Inc., priority 2008, dated 2016).
Where two headings read alike, the source gives them in different places. Each block holds one compound with its values, some of them ahead of it.

Experiments:
[1] = male, Sprague Dawley, rat, in vivo, 5 mg/kg
Method: (§1) The combo dose was prepared by mixing both by 1:1 to yield a concentration of 5 mg/mL for each compound (pH˜6) for intravenous and oral administration. The obtained solution was clear and colourless.
(§2) Male Sprague Dawley rats (body weight: 170 g to 220 g) were used in this study. Before the pharmacokinetic studies, animals were randomly assigned to the treatment groups.
(§3) The plasma samples and the dose formulation were stored at −20° C. until bioanalysis.
(§4) Plasma samples (0.1 mL) were transferred to Eppendorff tube, then 20 μL methanol, and 300 μL IS solution (50 ng/mL) were added to it. After Vortexing for 1 min and centrifuging for 5 min at 15,000 rpm, 5 μL of supernatant was injected into LC/MS/MS.
(§5) The concentrations in plasma below the limit of quantitation (LOQ=5 ng/mL) were designated as zero. The pharmacokinetic data analysis was performed using noncompartmental analysis modules in WinNonlin2.0.

in vivo = settings: male, Sprague Dawley, rat, 5 mg/kg
Method: as §1, §2, §3, §4, §5

[2] = system: mtDNA-encoded protein synthesis; assay: Mitochondria Toxicity Study (Complex IV/Frataxin ratio in HepG2 cells); settings: conclusion in words
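For Plasma Concentration Mean in this document: drug levels in rat plasma quantified by LC/MS/MS after a combined two-compound formulation, quantitation limit 5 ng/mL with lower values set to zero, parameters from noncompartmental analysis.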
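For Plasma Concentration in this document: drug levels in rat plasma quantified by LC/MS/MS after a combined two-compound formulation, quantitation limit 5 ng/mL with lower values set to zero, parameters from noncompartmental analysis.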
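For Vd in this document: drug levels in rat plasma quantified by LC/MS/MS after a combined two-compound formulation, quantitation limit 5 ng/mL with lower values set to zero, parameters from noncompartmental analysis.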
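For volume of distribution at terminal phase as % of total body water in this document: drug levels in rat plasma quantified by LC/MS/MS after a combined two-compound formulation, quantitation limit 5 ng/mL with lower values set to zero, parameters from noncompartmental analysis.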

volume of distribution at terminal phase as % of total body water ([1]; iv): 113.43%
Plasma Concentration ([1]; po, 12 hr): 0 µg/mL
concentration at 10 hr (in vivo; iv): 0 µg/mL
concentration at 12 hr (in vivo; po): 0 µg/mL
SMILES: [2H]C1([2H])CN(c2ccc(N3C[C@H](CNC(C)=O)OC3=O)cc2F)CC([2H])([2H])O1 [compound 10, (S)—N-((3-(3-Fluoro-4-(2,2,6,6-d4-morpholino)phenyl)-2-oxooxazolidin-5-yl)methyl)acetamide]
mitochondria toxicity [2]: comparable to that of linezolid

volume of distribution at terminal phase as % of total body water ([1]; iv): 131.34%
Plasma Concentration Mean ([1]; iv, 0.25 hr): 4.60718 µg/mL
Plasma Concentration Mean ([1]; iv, 0.5 hr): 3.77624 µg/mL
Plasma Concentration Mean ([1]; iv, 1 hr): 2.79688 µg/mL
Plasma Concentration Mean ([1]; iv, 2 hr): 1.43616 µg/mL
Plasma Concentration Mean ([1]; iv, 4 hr): 0.32008 µg/mL
Plasma Concentration Mean ([1]; iv, 6 hr): 0.06305 µg/mL
Plasma Concentration Mean ([1]; iv, 8 hr): 0.01945 µg/mL
Plasma Concentration Mean ([1]; iv, 10 hr): 0.00633 µg/mL
Plasma Concentration ([1]; iv, 12 hr): 0 µg/mL
Plasma Concentration ([1]; iv, 24 hr): 0 µg/mL
Plasma Concentration Mean ([1]; po, 0.25 hr): 2.15289 µg/mL
Plasma Concentration Mean ([1]; po, 0.5 hr): 2.1806 µg/mL
Plasma Concentration Mean ([1]; po, 1 hr): 1.89282 µg/mL
Plasma Concentration Mean ([1]; po, 2 hr): 1.33756 µg/mL
Plasma Concentration Mean ([1]; po, 4 hr): 0.6125 µg/mL
Plasma Concentration Mean ([1]; po, 6 hr): 0.22499 µg/mL
Plasma Concentration Mean ([1]; po, 8 hr): 0.07133 µg/mL
Plasma Concentration Mean ([1]; po, 10 hr): 0.01992 µg/mL
Plasma Concentration Mean ([1]; po, 12 hr): 0.00172 µg/mL
Plasma Concentration ([1]; po, 24 hr): 0 µg/mL
Vd (in vivo; iv): 0.76 L/kg
clearance (in vivo; iv): 0.55 L/h/kg
concentration at 12 hr (in vivo; iv): 0 µg/mL
concentration at 24 hr (in vivo; iv): 0 µg/mL
AUC(0-inf) (in vivo; po): 6.94 µg·h/mL
Cmax (in vivo; po): 2.37 µg/mL
concentration at 10 hr (in vivo; po): 0 µg/mL
concentration at 12 hr (in vivo; po): 0 µg/mL
concentration at 24 hr (in vivo; po): 0 µg/mL
SMILES: CC(=O)NC[C@H]1CN(c2ccc(N3CCOCC3)c(F)c2)C(=O)O1 [linezolid]
